{
  "source": "patent US12128257B2",
  "about": "“Extracts of Isochrysis sp” (SYMRISE AG, priority 2008, dated 2024)",
  "test_system": "hair follicles",
  "experiment": "Hair follicle growth (elongation) in organ culture of scalp hair follicles, image analysis",
  "assay_type": "cell-based, human",
  "conditions": "Table 7, day 10 of culture, pooled from two donors",
  "protocol": "For each experiment and the control 9-12 follicles were used, plated at the density of 3 hair follicles/well in 24 well plates. Hair follicles were taken from the head of the scalp and transferred for cultivation in sterile 24 well plates using a modified Williams' Medium E. Cultivation took place for nine days, following 18 h of pre-incubation performed in order to select hair follicles suitable to be maintained in culture. Only those follicles showing a good vital stage and a growth of not less than 0.2 mm were used.\nThe growth performances observed in the treated hair follicles were compared to a control group, which was cultured in the same culture medium but free from extract supplement.\n[…] In order to obtain these supplemented media, the required quantity of dir-MeOH extract was submitted to solvent evaporation and then redissolved again in DMSO. The final concentration of this DMSO-solved extract has been adjusted in order to supplement the experimental media with the desired extract quantity, obtaining at same time a final concentration in DMSO equal to 0.05%. The same concentration of DMSO has also been used in the medium for the culture of the control group.\nThe experiments were terminated after 10 days of cultivation (9 days of treatment). The growth of the hair follicles was studied by microphotography and subsequently determined by image analysis. All the hair follicles were photographed every two days.\n1, were the hair follicle elongation is expressed as percentage ratio between the experimental groups and the untreated control: […]",
  "data": [
    {"smiles": "CC/C=C\\C/C=C\\C/C=C\\C/C=C\\C/C=C\\C/C=C\\CCC(=O)O", "note": "[DHA, docosahexaenoic acid]", "values": [
      {"measurement": "Growth (%): Elongation in [%] of the control performance", "setting": "0.003 μg/ml", "result": 99.5, "unit": "%"},
      {"measurement": "Growth (%): Elongation in [%] of the control performance", "setting": "0.03 μg/ml", "result": 93.5, "unit": "%"},
      {"measurement": "Growth (%): Elongation in [%] of the control performance", "setting": "0.3 μg/ml", "result": 89.3, "unit": "%"}
    ]}
  ]
}
